The text below walks through data of patent US20240376085A1 (Janssen Pharmaceutica NV, priority 2021, published 2024).

In experiment [1] the test system is IL-17A-induced G-CSF production in human normal keratinocyte (NHK). Briefly: NHK assay: IL-17A-induced G-CSF production in normal human keratinocytes. The experiment is classed as cell-based. To be noted: IL-17A 5 ng/mL, 24 h, average if tested more than once. In a few lines: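 Compound titrations are first mixed with recombinant human IL-17A for 1 h at room temperature. The mixture goes onto adult normal human keratinocytes (final IL-17A 5 ng/mL, 5% FBS, 0.2% DMSO) for 24 h at 37 °C. Secreted G-CSF is then measured by HTRF and IC50 fitted.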

The next experiment has as its target T1, IL-17A : IL-17RA binding (Homo sapiens, UniProt Q16552, K93Q).
T1 construct: Name: IL-17A-Flag
Briefly: IL-17A(FLAG-tagged):IL-17RA(His-tagged) binding disruption Eu-HTRF assay, Protocol 1. The note with it: FLAG-IL-17A 2.5 nM at 2x final concentration; average if tested more than once. A digest of the protocol: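 IC50 came from a one-site competition fit of the acceptor/donor (665/620 nm) HTRF ratio. His-tagged IL-17RA, Eu-anti-FLAG and D2-anti-His were added after a 1 h rt compound preincubation with FLAG-tagged IL-17A dimer in PBS/0.01% Triton X-100, followed by 2 h at rt before reading.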
In general terms: TR-FRET usually uses a lanthanide donor and a delayed reading to cut background.

For orientation: IC50 means the point on the concentration scale where inhibition reaches its midpoint. Read a low IC50 as greater potency.

T1 sequence (Q16552 with tags, fused parts or gaps K93Q): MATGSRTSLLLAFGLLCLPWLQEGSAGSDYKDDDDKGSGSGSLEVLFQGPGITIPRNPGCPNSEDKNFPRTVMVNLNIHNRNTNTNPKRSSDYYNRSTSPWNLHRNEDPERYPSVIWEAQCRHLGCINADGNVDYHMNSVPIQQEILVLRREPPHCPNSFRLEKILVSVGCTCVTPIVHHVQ

Take `CC(C)n1nccc1C(=O)N[C@H](c1nc2ccc([C@H](NC(=O)CC3CC(F)(F)C3)C3CC3)cc2[nH]1)C1CCC(F)(F)CO1` (single isomer, unassigned) [Example 262, N—((R)-(6-((R)-Cyclopropyl(2-(3,3-difluorocyclobutyl)acetamido)methyl)-1H-benzo[d]imidazol-2-yl)((R*)-5,5-difluorotetrahydro-2H-pyran-2-yl)methyl)-1-isopropyl-1H-pyrazole-5-carboxamide]: the IC50 in experiment [1] is less than 50 nM; at IL-17A : IL-17RA binding, greater than 100 nM.

For the compound `C[C@@H](NC(=O)CCC(F)(F)F)c1ccc2[nH]c([C@@H](NC(=O)c3cnnn3CCCC(F)(F)F)C3CCC(F)(F)CC3)nc2c1` [Example 20, N—[(S)-(4,4-Difluorocyclohexyl)-[6-[(1R)-1-(4,4,4-trifluorobutanoylamino)ethyl]-1H-benzimidazol-2-yl]methyl]-3-(4,4,4-trifluorobutyl)triazole-4-carboxamide], the IC50 in experiment [1] (Homo sapiens, Keratinocyte) is 50 to 100 nM; on IL-17A : IL-17RA binding it was greater than 100 nM.

Turning to `COCCn1cc(C(=O)N[C@H](c2nc3cc([C@@H](C)NC(=O)CCC(F)(F)F)ccc3[nH]2)C2CCC(F)(F)CC2)nn1` [Example 16, N—[(S)-(4,4-Difluorocyclohexyl)-[6-[(1R)-1-(4,4,4-trifluorobutanoylamino)ethyl]-1H-benzimidazol-2-yl]methyl]-1-(2-methoxyethyl)triazole-4-carboxamide], the IC50 in experiment [1] (Homo sapiens, Keratinocyte) was greater than 100 nM; on IL-17A : IL-17RA binding it was greater than 100 nM.

On to `CC(C)n1nccc1C(=O)N[C@H](c1nc2ccc([C@H](NC(=O)CC3CC(F)(F)C3)C3CC3)cc2[nH]1)C1CCCCO1` (single isomer, unassigned) [Example 253, N—((R)-(6-((R)-Cyclopropyl(2-(3,3-difluorocyclobutyl)acetamido)methyl)-1H-benzo[d]imidazol-2-yl)((R*)-tetrahydro-2H-pyran-2-yl)methyl)-1-isopropyl-1H-pyrazole-5-carboxamide], for which the concentration for half-maximal inhibition (IC50) is greater than 100 nM in experiment [1] (Homo sapiens, Keratinocyte) and greater than 100 nM on IL-17A : IL-17RA binding.

On to `Cc1c(C(=O)N[C@H](c2nc3cc([C@@H](C)NC(=O)CCC(F)(F)F)ccc3[nH]2)C2CCC(F)(F)CC2)cnn1CCC#N` [Example 17, 1-(2-Cyanoethyl)-N—[(S)-(4,4-difluorocyclohexyl)-[6-[(1R)-1-(4,4,4-trifluorobutanoylamino)ethyl]-1H-benzimidazol-2-yl]methyl]-5-methyl-pyrazole-4-carboxamide], for which the IC50 in experiment [1] (Homo sapiens, Keratinocyte) is greater than 100 nM; on IL-17A : IL-17RA binding, greater than 100 nM.

Regarding `C[C@@H](NC(=O)CCC(F)(F)F)c1ccc2[nH]c([C@@H](NC(=O)c3cc(CCC(F)(F)F)no3)C3CCC(F)(F)CC3)nc2c1` [Example 215, N—((S)-(4,4-Difluorocyclohexyl)(5-((R)-1-(4,4,4-trifluorobutanamido)ethyl)-1H-benzo[d]imidazol-2-yl)methyl)-3-(3,3,3-trifluoropropyl)isoxazole-5-carboxamide], the IC50 is greater than 100 nM in experiment [1] (Homo sapiens, Keratinocyte) and greater than 100 nM on IL-17A : IL-17RA binding.

For `C[C@@H](NC(=O)CCC(F)(F)F)c1ccc2[nH]c([C@@H](NC(=O)c3cn(CC45CC(C#N)(C4)C5)nn3)C3CCC(F)(F)CC3)nc2c1` [Example 79, 1-((3-Cyanobicyclo[1.1.1]pentan-1-yl)methyl)-N—((S)-(4,4-difluorocyclohexyl)(5-((R)-1-(4,4,4-trifluorobutanamido)ethyl)-1H-benzo[d]imidazol-2-yl)methyl)-1H-1,2,3-triazole-4-carboxamide], the IC50 is greater than 100 nM in experiment [1] (Homo sapiens, Keratinocyte) and greater than 100 nM at IL-17A : IL-17RA binding.

For `CC(C)C(=O)N[C@H](c1nc2cc([C@@H](C)NC(=O)CCC(F)(F)F)ccc2[nH]1)C1CCC(F)(F)CC1` [Example 115, N—((R)-1-(2-((S)-(4,4-Difluorocyclohexyl)(isobutyramido)methyl)-1H-benzo[d]imidazol-5-yl)ethyl)-4,4,4-trifluorobutanamide], the concentration for half-maximal inhibition (IC50) was greater than 100 nM in experiment [1] (Homo sapiens, Keratinocyte) and greater than 100 nM on IL-17A : IL-17RA binding.

Consider `C[C@@H](NC(=O)CCC(F)(F)F)c1ccc2[nH]c([C@@H](NC(=O)c3cnnn3CCC(F)(F)F)C3CCC(F)(F)CC3)nc2c1` [Example 4, N—[(S)-(4,4-Difluorocyclohexyl)-[6-[(1R)-1-(4,4,4-trifluorobutanoylamino)ethyl]-1H-benzimidazol-2-yl]methyl]-3-(3,3,3-trifluoropropyl)triazole-4-carboxamide], for which the IC50 is 50 to 100 nM in experiment [1] (Homo sapiens, Keratinocyte) and greater than 100 nM at IL-17A : IL-17RA binding.

Take `Cc1nonc1C(=O)N[C@H](c1nc2ccc([C@H](NC(=O)CC3CC(F)(F)C3)C3CC3)cc2[nH]1)C1CCC2(CC1)CC2` (stereo partly drawn) [Example 169, N—((S)-(6-((R)-Cyclopropyl(2-(3,3-difluorocyclobutyl)acetamido)methyl)-1H-benzo[d]imidazol-2-yl)(spiro[2.5]octan-6-yl)methyl)-4-methyl-1,2,5-oxadiazole-3-carboxamide]: the IC50 in experiment [1] (Homo sapiens, Keratinocyte) was less than 50 nM; on IL-17A : IL-17RA binding, less than 50 nM.

As to `CC(C)(O)c1nonc1C(=O)N[C@@H](COC(C)(C)C(F)(F)F)c1nc2cc([C@H](NC(=O)CC3CC(F)(F)C3)C3CC3)ccc2[nH]1` [Example 168, N—((R)-1-(5-((R)-Cyclopropyl(2-(3,3-difluorocyclobutyl)acetamido)methyl)-1H-benzo[d]imidazol-2-yl)-2-((1,1,1-trifluoro-2-methylpropan-2-yl)oxy)ethyl)-4-(2-hydroxypropan-2-yl)-1,2,5-oxadiazole-3-carboxamide], the IC50 in experiment [1] (Homo sapiens, Keratinocyte) is greater than 100 nM; at IL-17A : IL-17RA binding it was 50 to 100 nM.

In the case of `C[C@@H](NC(=O)CCC(F)(F)F)c1ccc2[nH]c([C@@H](NC(=O)[C@@H]3CC[C@@H]3CF)C3CCC(F)(F)CC3)nc2c1` (single isomer, unassigned) [Example 113], the IC50 is greater than 100 nM in experiment [1] (Homo sapiens, Keratinocyte) and greater than 100 nM on IL-17A : IL-17RA binding.

Consider `Cc1nonc1C(=O)N[C@@H](CC(C)(C)C(F)(F)F)c1nc2cc([C@H](NC(=O)CCC(F)(F)F)C3CC3)ccc2[nH]1` (relative stereo) [Example 193, N—((S*)-1-(5-((R*)-Cyclopropyl(4,4,4-trifluorobutanamido)methyl)-1H-benzo[d]imidazol-2-yl)-4,4,4-trifluoro-3,3-dimethylbutyl)-4-methyl-1,2,5-oxadiazole-3-carboxamide], for which the IC50 in experiment [1] (Homo sapiens, Keratinocyte) is 50 to 100 nM; on IL-17A : IL-17RA binding, less than 50 nM.

On to `Cc1nonc1C(=O)N[C@H](c1nc2ccc([C@H](NC(=O)CC3CC(F)(F)C3)C3CC3)cc2[nH]1)[C@@H]1C[C@@H]2[C@H](C1)C2(F)F` [Example 237, N—((S)-(6-((R)-Cyclopropyl(2-(3,3-difluorocyclobutyl)acetamido)methyl)-1H-benzo[d]imidazol-2-yl)((1R,3s,5S)-6,6-difluorobicyclo[3.1.0]hexan-3-yl)methyl)-4-methyl-1,2,5-oxadiazole-3-carboxamide], for which the IC50 is 50 to 100 nM in experiment [1] (Homo sapiens, Keratinocyte) and less than 50 nM at IL-17A : IL-17RA binding.

`O=C(CC1CC(F)(F)C1)N[C@@H](c1ccc2[nH]c([C@@H](NC(=O)c3nonc3C3CC3)[C@H]3[C@@H]4CC(F)(F)C[C@@H]43)nc2c1)C1CC1` [Example 266, 4-Cyclopropyl-N—((S)-(5-((R)-cyclopropyl(2-(3,3-difluorocyclobutyl)acetamido)methyl)-1H-benzo[d]imidazol-2-yl)((1R,5S,6r)-3,3-difluorobicyclo[3.1.0]hexan-6-yl)methyl)-1,2,5-oxadiazole-3-carboxamide]: the IC50 was less than 50 nM in experiment [1] (Homo sapiens, Keratinocyte) and less than 50 nM at IL-17A : IL-17RA binding.

For the compound `CC(CC(=O)N[C@@H](c1ccc2[nH]c([C@H](COC(C)(C)C(F)(F)F)NC(=O)c3nonc3C3CC3)nc2c1)C1CC1)C(F)F` (single isomer, unassigned) [Example 175, 4-Cyclopropyl-N—((R)-1-(5-((R)-cyclopropyl((R*)-4,4-difluoro-3-methylbutanamido)methyl)-1H-benzo[d]imidazol-2-yl)-2-((1,1,1-trifluoro-2-methylpropan-2-yl)oxy)ethyl)-1,2,5-oxadiazole-3-carboxamide], the IC50 in experiment [1] (Homo sapiens, Keratinocyte) was greater than 100 nM; on IL-17A : IL-17RA binding it was less than 50 nM.

Turning to `C[C@@H](NC(=O)CCC(F)(F)F)c1ccc2[nH]c([C@@H](NC(=O)c3nn(CC4CCC4)cc3C#N)C3CCC(F)(F)CC3)nc2c1` [Example 91, 4-Cyano-1-(cyclobutylmethyl)-N—((S)-(4,4-difluorocyclohexyl)(5-((R)-1-(4,4,4-trifluorobutanamido)ethyl)-1H-benzo[d]imidazol-2-yl)methyl)-1H-pyrazole-3-carboxamide], the IC50 was greater than 100 nM in experiment [1] (Homo sapiens, Keratinocyte) and greater than 100 nM on IL-17A : IL-17RA binding.

Turning to `[2H]C([2H])([2H])n1nccc1C(=O)N[C@@H](COC(C)(C)C(F)(F)F)c1nc2cc([C@H](NC(=O)CC3CC(F)(F)C3)C3CC3)ccc2[nH]1` [Example 167, N—((R)-1-(5-((R)-Cyclopropyl(2-(3,3-difluorocyclobutyl)acetamido)methyl)-1H-benzo[d]imidazol-2-yl)-2-((1,1,1-trifluoro-2-methylpropan-2-yl)oxy)ethyl)-1-(methyl-d3)-1H-pyrazole-5-carboxamide], the half-inhibitory concentration (IC50) fell in the range of 50 to 100 nM in experiment [1] (Homo sapiens, Keratinocyte) and 50 to 100 nM on IL-17A : IL-17RA binding.

Turning to `C[C@@H](NC(=O)CCC(F)(F)F)c1ccc2nc([C@@H](NC(=O)c3cn(CC4CC(F)(F)C4)nn3)C3CCC(F)(F)CC3)[nH]c2c1` [Example 65, 1-((3,3-Difluorocyclobutyl)methyl)-N—((S)-(4,4-difluorocyclohexyl)(6-((R)-1-(4,4,4-trifluorobutanamido)ethyl)-1H-benzo[d]imidazol-2-yl)methyl)-1H-1,2,3-triazole-4-carboxamide], the IC50 in experiment [1] (Homo sapiens, Keratinocyte) was greater than 100 nM; at IL-17A : IL-17RA binding, greater than 100 nM.
